The source of these data is US9345742B2, “Aminostatin derivatives for the treatment of arthrosis” (MERCK PATENT GMBH, priority 2011, dated 2016).

Structures are written as SMILES. Numbered stars: 1 amine (or outer) side, 2 acyl side, 3 side chain; on linkers, the order of the positions; unused ones are H or OH. Square brackets hold non-standard residues; d marks the D form. Peptide text beside a SMILES is read from it. * marks the point of attachment. X1 = N[C@@H](CC(=O)[*:2])[C@H](Cc1ccccc1)N[*:1]; Isovaleryl = CC(C)CC(=O)*

In one assay the target is recombinant human renin (Homo sapiens (Human), UniProt P00797). The assay is described as follows: In-vitro fluorescence assay for identification of renin-inhibitory activity. The assay is classed as biochemical. The note with it: recombinant human renin 10 nM, pH 7.2; read-out: Renin selectivity IC50. On the procedure: In order to identify modulators of renin activity, a continuous enzymatic test was carried out with a synthetic peptide which carries a fluorescent group Edans (=(5-(aminoethyl)aminonaphthalenesulfonate) which is quenched by energy transfer from a Dabcyl (4′-dimethylaminoazobenzene-4-carboxylate) group on the same molecule, in Greiner 384-well microtitre plates. Cleavage of the peptidic substrate by renin causes an increase in the fluorescence intensity. In order to determine the efficacy of substances, the time-dependent increase in the fluorescence intensity in the presence of the substance was compared with the time-dependent increase in fluorescence in the absence of substances. The reference substance used was renin inhibitor 2 (Z-Arg-Arg-Pro-Phe-His-Sta-Ile-His N-Boc-Lys methyl ester Z) (Sigma-Aldrich). The substrate used was renin FRET substrate I (DABCYL-g-Abu-[…]EDANS) (Anaspec, Fremont Calif.). The enzyme employed was recombinant human renin (Proteos, Kalamazoo, Mich.) in a final concentration of 10 nM. The test was carried out in 50 mM Mops buffer, 1.5% (v/v) of DMSO, 0.1% (w/v) of Igepal®, pH 7.2, 0.5% (w/v) of BSA. 2 μl of each substance solution with serially diluted substance concentration were added to in each case 4 μl of renin solution and incubated at room temperature for 15 min. The reaction was started by addition of 4 μl of substrate solution (final concentration 5 μM). After carrying out a starting-point fluorescence measurement (excitation wavelength 340 nm/emission wavelength 495 nm) using an Envision multilabel reader (Perkin Elmer), the reaction was incubated at 37° C. for 60 min. The amount of peptide fragment cleaved off during the reaction time was subsequently measured by determination of the increase in the fluorescence intensity at 495 nm (excitation wavelength 340 nm).

Assay [1] addresses cathepsin D isolated from the human liver (Homo sapiens (Human), UniProt P07339). The assay is described as follows: In-vitro fluorescence assay for identification of cathepsin D inhibitors. The class given is biochemical. Conditions: cathepsin D 1.4 nM, pH 5.5; read-out: CatD assay IC50-. On the procedure:
In order to identify modulators of cathepsin D activity, a continuous enzymatic test was carried out with a synthetic peptide which carries a fluorescent group (MCA=(7-methoxycoumarin-4-yl)acetyl) which is quenched by energy transfer from a Dpn (2,4 dinitrophenyl) group on the same molecule, in Greiner 384-well nb microtitre plates. Cleavage of the peptidic substrate by cathepsin D causes an increase in the fluorescence intensity. In order to determine the efficacy of substances, the time-dependent increase in the fluorescence intensity in the presence of the substance was compared with the time-dependent increase in fluorescence in the absence of substances. The reference substance used was pepstatin A (Sigma-Aldrich). The substrate used was […](Dnp)d-R—NH2 (Enzo Life Sciences, Lörrach). The enzyme employed was cathepsin D isolated from the human liver (Sigma-Aldrich) in a final concentration of 1.4 nM. The test was carried out in 100 mM sodium acetate buffer, 1.25% (v/v) of DMSO, 0.25% (w/v) of Chaps, pH 5.5. 2 μl of each substance solution with serially diluted substance concentration were added to in each case 4 μl of cathepsin D solution and incubated at room temperature for 10 min. The reaction was started by addition of 2 μl of substrate solution (final concentration 5 μM). After carrying out a starting-point fluorescence measurement (excitation wavelength 340 nm/emission wavelength 450 nm) using an Envision multilabel reader (Perkin Elmer), the reaction was incubated at room temperature for 60 min. The amount of peptide fragment cleaved off during the reaction time was subsequently measured by determination of the increase in the fluorescence intensity at 450 nm (excitation wavelength 340 nm).

By IC50 is commonly meant the concentration that gives 50% inhibition.

Sequence of cathepsin D isolated from the human liver (P07339 65-161): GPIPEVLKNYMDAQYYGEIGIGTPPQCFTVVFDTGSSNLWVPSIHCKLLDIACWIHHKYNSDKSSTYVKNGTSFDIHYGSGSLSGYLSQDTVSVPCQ
Sequence of cathepsin D isolated from the human liver (P07339 169-412): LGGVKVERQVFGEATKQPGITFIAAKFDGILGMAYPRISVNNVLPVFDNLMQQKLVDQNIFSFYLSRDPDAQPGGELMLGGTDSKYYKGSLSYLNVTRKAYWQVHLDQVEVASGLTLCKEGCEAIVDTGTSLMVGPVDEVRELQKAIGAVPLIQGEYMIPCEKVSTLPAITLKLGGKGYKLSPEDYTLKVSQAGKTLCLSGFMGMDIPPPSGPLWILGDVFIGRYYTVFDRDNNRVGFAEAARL
Sequence of recombinant human renin (P00797 67-406): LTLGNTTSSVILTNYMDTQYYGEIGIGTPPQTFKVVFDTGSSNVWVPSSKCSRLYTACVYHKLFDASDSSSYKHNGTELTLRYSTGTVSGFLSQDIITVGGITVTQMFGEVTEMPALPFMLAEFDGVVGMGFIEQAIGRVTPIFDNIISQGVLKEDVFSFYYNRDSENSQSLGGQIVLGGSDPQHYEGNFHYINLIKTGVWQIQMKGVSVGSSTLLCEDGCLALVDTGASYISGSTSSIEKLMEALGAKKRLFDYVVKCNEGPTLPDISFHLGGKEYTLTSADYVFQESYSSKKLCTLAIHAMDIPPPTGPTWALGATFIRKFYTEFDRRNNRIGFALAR

Regarding `CC[C@H](C)[C@H](NC(=O)C[C@H](N)[C@H](Cc1ccccc1)NC(=O)[C@@H](NC(=O)[C@H](CC(C)C)NC(=O)CC(C)C)C(C)C)C(=O)NCC1CC1` [Compound 30, N-[(1S,2S)-1-(Cyclopropylmethyl-carbamoyl)-2-methylbutyl]-(S)-3-(S)-amino-4-{(S)-3-methyl-2-[(S)-4-methyl-2-(3-methylbutyrylamino)-pentanoylamino]butyrylamino}-5-phenylpentanamide], the IC50 is > 30000 nM on recombinant human renin and 400 nM in assay [1].
Taken in the same sequence, the figures for `CCc1cccc(CC)c1NC(=O)C[C@H](N)[C@H](Cc1ccccc1)NC(=O)[C@@H](NC(=O)[C@H](CC(C)C)NC(=O)CC(C)C)C(C)C` [Compound 38, N-(2,6-Diethylphenyl)-(3S,4S)-3-amino-4-{(S)-3-methyl-2-[(S)-4-methyl-2-(3-methyl-butyrylamino)pentanoylamino]butyryl-amino}-5-phenylpentanamide] were > 30000 nM and 230 nM.
Taken in the same sequence, the figures for `CC[C@H](C)[C@H](NC(=O)Cc1cccc(OC(F)(F)F)c1)C(=O)N[C@@H](Cc1ccccc1)[C@@H](N)CC(=O)N[C@H](C(=O)N[C@H](CO)C(C)C)[C@@H](C)CC` [Compound 41, N-{(2S,3S)-1-[1-((S)-Hydroxymethyl)-2-methylpropylcarbamoyl]-2-methylbutyl)-3-(S)-amino-4-{(S)-(2S,3S)-3-methyl-2-[2-(3-trifluoromethoxyphenyl)acetylamino]-pentanoylamino}-5-phenylpentanamide] were > 30000 nM and 48 nM.
Take `CC(C)CC(=O)N[C@@H](CC(C)C)C(=O)N[C@H](C(=O)N[C@@H](Cc1ccccc1)[C@@H](N)CC(=O)N[C@H](COc1ccc(F)cc1F)C(C)C)C(C)C` [Compound 44, N-[(S)-1-(2,4-Difluorophenoxymethyl)-2-methylpropyl]-(3S,4S)-3-amino-4-{(S)-3-methyl-2-[(S)-4-methyl-2-(3-methylbutyryl-amino)pentanoylamino]butyrylamino}-5-phenylpentanamide]: the IC50 at recombinant human renin is > 30000 nM; in assay [1], 39 nM.
Taken in the same sequence, the figures for `CCc1cccc(CC)c1NC(=O)C[C@H](N)[C@H](Cc1ccccc1)NC(=O)[C@@H](NC(=O)CCCc1ccccc1)C(C)C` [Compound 40, N-(2,6-Diethylphenyl)-(3S,4S)-3-amino-4-[(S)-3-methyl-2-(4-phenylbutyrylamino)butyrylamino]-5-phenylpentanamide] were > 30000 nM and 800 nM.
Consider `CC[C@H](C)[C@H](NC(=O)C[C@H](N)[C@H](Cc1ccccc1)NC(=O)[C@@H](NC(=O)Cc1cccc(OC(F)(F)F)c1)C(C)C)C(=O)N[C@H](C(=O)OC)C(C)C` [Compound 7, Methyl (S)-2-[(2S,3S)-2-((3S,4S)-3-amino-4-{(S)-3-methyl-2-[2-(3-trifluoromethoxy-phenyl)acetylamino]butyrylamino}-5-phenylpentanoylamino)-3-methyl-pentanoylamino]-3-methylbutyrate], for which the IC50 was > 30000 nM at recombinant human renin and 18 nM in assay [1].
Taken in the same sequence, the figures for `CC[C@H](C)[C@H](NC(=O)C[C@H](N)[C@H](Cc1ccccc1)NC(=O)[C@@H](NC(=O)[C@H](CC(C)C)NC(=O)CC(C)C)C(C)C)C(=O)N[C@@H](CC(C)C)C(=O)OC` [Compound 14, Methyl (S)-2-[(2S,3S)-2-((S)-3-(S)-amino-4-{(S)-3-methyl-2-[(S)-4-methyl-2-(3-methyl-butyrylamino)pentanoylamino]butyryl-amino}-5-phenylpentanoylamino)-3-methylpentanoylamino]-4-methylpentanoate] (Isovaleryl-LV[X1]IL-OMe) were > 30000 nM and 160 nM.
